# According to patent US10071063B2, “Specific mTOR inhibitors in the treatment of X-linked adrenoleukodystrophy” (FUNDACIÓN DE LA COMUNIDAD VALENCIANA CENTRO DE …, priority 2014, dated 2018):
# Where two headings read alike, the source gives them in different places.
# Tests used:
# mTOR = experiment: p70S6K phosphorylation (mTOR activity) by Western blot in spinal cord of treated Abcd1−/− mice; format: in vivo, mouse; settings: temsirolimus 20 mg/kg i.p. three times a week, 3 months with rest periods
# Excerpt: (§1) All methods employed in this study were in accordance with the Guide for the Care and Use of Laboratory Animals published by the US National Institutes of Health (NIH publication No. 85-23, revised 1996) and the ethical committees of IDIBELL and the Generalitat de Catalunya. The generation and genotyping of Abcd1 null mice have been previously described. Mice used for experiments were on a pure C57BL/6J background. Abcd1 null and wild type mice were separated into control and treated groups. Temsirolimus (LC laboratories) was administered by intraperitoneal injections three times a week at a dose of 20 mg/kg for 3 months with alternate 3-weeks rest periods between each month of treatment. Control mice were given a placebo injection containing buffer only with the same frequency. Treadmill test was carried out exactly as previously described (López-Erauskin J, et al, 2011, Ann Neurol 70, 84-92). The latency to falling off the belt (time of shocks in seconds) and the number of received shocks were measured. […]
# (§2) Tissues were removed from euthanized mice and flash-frozen on liquid nitrogen. […] Resolved proteins were transferred onto nitrocellulose membranes and proteins were detected with ECL Western blotting analysis system followed by exposure to CL-XPosure Film (Thermo Scientific). Autoradiographs were scanned and quantified using a GS800 Densitometer (Bio-Rad).
# Abcd1 null mice = experiment: Dose tests of temsirolimus in Abcd1 null mice (body response, weight); format: in vivo, mouse
# Excerpt: (§3) All methods employed in this study were in accordance with the Guide for the Care and Use of Laboratory Animals published by the US National Institutes of Health (NIH publication No. 85-23, revised 1996) and the ethical committees of IDIBELL and the Generalitat de Catalunya. The generation and genotyping of Abcd1 null mice have been previously described. Mice used for experiments were on a pure C57BL/6J background. Abcd1 null and wild type mice were separated into control and treated groups. Temsirolimus (LC laboratories) was administered by intraperitoneal injections three times a week at a dose of 20 mg/kg for 3 months with alternate 3-weeks rest periods between each month of treatment. Control mice were given a placebo injection containing buffer only with the same frequency. Treadmill test was carried out exactly as previously described (López-Erauskin J, et al, 2011, Ann Neurol 70, 84-92). The latency to falling off the belt (time of shocks in seconds) and the number of received shocks were measured. Bar cross test was performed as previously described (López-Erauskin J, et al, 2011, Ann Neurol 70, 84-92). Placebo and drug treated mice within each litter were tested on the treadmill simultaneously and at the time of testing were not identified as to their treatment status.
# 10 month-old Abcd1 null mice were treated with temsirolimus, or vehicle (control), administered by intraperitoneal injection as described previously. Doses tests in order to check mice's body response was firstly performed. […] Thus, to prevent side effects other treatment conditions: intraperitoneal injections of temsirolimus for 3 months with alternate 3-weeks rest periods between each month of treatment, were tested.
# [1] = test system: Abcd1−/− mouse spinal cord; experiment: Western blot of autophagy markers LC3-II and p62 in spinal cord of treated Abcd1−/− mice; format: in vivo; settings: temsirolimus 20 mg/kg i.p. three times a week, 3 months with rest periods
# Excerpt: as §1, §2
# [2] = test system: Abcd1−/− mouse spinal cord; experiment: Oxidized proteins, ATP levels, proteasome activity and immunoproteasome subunits in spinal cord of temsirolimus-treated Abcd1−/− mice; format: in vivo; settings: temsirolimus 20 mg/kg i.p.
# Excerpt: as §3
# Total RNA was isolated from homogenized spinal cord using the RNeasy mini kit (Qiagen), according to the manufacturer's instructions. RNA samples with RNA Integrity Number (RIN) above 8 and 28S/18S ratio higher than 1 were used for the experiments. Then, first strand cDNA was synthesized for each RNA sample using Superscript II reverse transcriptase (Invitrogen) and random primers. The expression of the candidate proteasome genes was analysed by RQ-PCR using TaqMan® Gene Expression Assays (Applied Biosystems).
# Relative quantitation was carried out using the ‘Delta-Delta Ct’ (ΔΔCt) method with tubby RNA as endogenous control. Transcript quantification was performed in duplicate for each sample.
# (§4) Tissues were removed from euthanized mice and flash-frozen on liquid nitrogen. Frozen tissues and human fibroblasts samples were homogenized in RIPA buffer (Cell Signaling Technology) using a motor-driven grinder (Sigma-Aldrich), and then sonicated for 2 min at 4° C. in an Ultrasonic processor UP50H (Hielscher-Ultrasound Technology). Samples were subjected to polyacrylamide (10% acrylamide) gel electrophoresis for 60 min at […]. Resolved proteins were transferred onto nitrocellulose membranes and proteins were detected with ECL Western blotting analysis system followed by exposure to CL-XPosure Film (Thermo Scientific). Autoradiographs were scanned and quantified using a GS800 Densitometer (Bio-Rad).
# ATP levels were measured as previously described (Galino J, et al 2011, Antioxid Redox Signal 15, 2095-2107). For proteasome activity assays, tissues were homogenized in an ice-cold buffer (50 mM Tris-HCl pH 7.5, 1 mM dithiothreitol, 0.25 M sucrose, 5 mM MgCl2, 0.5 mM EDTA with 2 mM ATP), using a teflon-on-glass homogenizer, and centrifuged at 12,000×g for 10 min. Chymotrypsin-like activity of proteasomes was determined as described (Launay N, et el, 2013 Brain 136, 891-904), using Suc-LLVY-AMC as substrate. […] The free AMC fluorescence was quantified with a fluorescence multiplate FLUOstar OPTIMA FL reader (BMG) with excitation and emission wavelengths at 380 and 460 nm, respectively. […] All reactions were carried out in duplicate and readings were calibrated using standard solutions of the fluorophores.
# Abcd1−/−/Abcd2−/− mice [3] = experiment: Immunohistochemistry of axonal degeneration markers in spinal cord of Abcd1−/−/Abcd2−/− mice; format: in vivo, mouse
# Excerpt: as §3
# Spinal cords were harvested from 20-month-old mice (wild type, Abcd1−/−/Abcd2−/− and Abcd1−/−/Abcd2−/− treated with temsirolimus), after perfusion with 4% paraformaldehyde and prepared and incubated for immunohistochemistry as described (López-Erauskin J, et al, 2011. Ann Neurol 70, 84-92).
# Abcd1−/−/Abcd2−/− mice [4] = experiment: Bar cross test; format: in vivo, mouse; settings: Abcd1−/−/Abcd2−/− mice at 20 months of age
# Abcd1−/−/Abcd2−/− mice [5] = experiment: Treadmill test; format: in vivo, mouse; settings: Abcd1−/−/Abcd2−/− mice at 20 months of age
# [6] = test system: control and X-ALD fibroblasts; experiment: Immunoblot of LC3-II and p62 in fibroblasts treated or not with VLCFA; format: cell-based, human; settings: excess of VLCFA
# Method: (§5) Skin biopsies to prepare fibroblasts were collected according to the institutional guidelines for sampling, including informed consent from the persons involved or their representatives. Primary human fibroblasts were cultured in DMEM (containing 10% fetal bovine serum, 100 U/ml penicillin and 100 μg streptomycin) at 37° C. in humidified 5% CO2/95% air. Unless otherwise stated, experiments were carried out with cells at 80% confluence. For starvation conditions (high proteolysis medium, H), cells were switched, after washing, from full growth medium (see above, low proteolysis medium, L) to Krebs-Henseleit medium (118.4 mM NaCl, 4.75 mM KCl, 1.19 mM KH2PO4, 2.54 mM MgSO4, 2.44 mM CaCl2.2H2O, 28.6 mM NaHCO3, 10 mM glucose) containing 10 mM Hepes, pH 7.4 (high proteolysis medium, H) and incubated for 4 h or less at 37° C.
# as §4
# Then, the LC3-II and p62 levels in cell extracts from control and X-ALD fibroblasts treated or not with VLCFA were determined by immunoblot analysis.
# [7] = test system: control and X-ALD patient fibroblasts; experiment: Pulse-chase degradation of long-lived proteins in fibroblasts treated with VLCFA; format: cell-based, human; settings: C26:0 50 μM 24 h, high proteolysis medium; for inhibition at 50 µM: Homo sapiens, Fibroblast, control fibroblasts
# Method: as §5
# For pulse-chase experiments, human control and X-ALD patient fibroblasts were incubated for 48 h in fresh full medium with 1 μCi/ml [3H]valine (Hartmann Analytic Gmbh), followed by a 24 h chase in fresh full medium containing 10 mM L-valine to degrade short-lived proteins. Then, all cultures were incubated for the indicated times in Krebs-Henseleit medium with 10 mM Hepes, pH 7.4, containing 10 mM valine and the indicated additions. Protein degradation, which was analysed 1 h later to ensure maximal effects of the various additions and for only 3 h to avoid possible secondary effects, was calculated at two intervals of 1.5 h by measuring the net release of trichloroacetic acid-soluble radioactivity from the labelled cells into the culture medium and expressed as percentage of protein degraded. The contribution of lysosomal degradation to total protein degradation was calculated using 20 mM NH4Cl (Sigma-Aldrich) plus 100 μM leupeptin (Peptide Institute), as previously described (Fuertes G, et al, 2003, Biochem J 375, 75-86).
# In X-ALD, VLCFA accumulate. The effect of the addition of an excess of hexacosanoic acid to fibroblasts isolated from controls and X-ALD patients was tested. First, the degradation of intracellular proteins was analyzed to determine if it was any alteration in control and X-ALD fibroblasts upon addition of an excess of VLCFA, by analyzing in pulse-chase experiments the degradation of long-lived proteins under starvation. Total protein degradation and also, separately, lysosomal protein degradation were estimated by procedures previously described (Fuertes G, et al, 2003, Biochem J 375, 75-86).
# [8] = cited from earlier work
# [9] = intraperitoneal injections for 3 months with alternate 3-weeks rest periods between each month
# [10] = RT-PCR, Abcd1−/− mouse spinal cord
# [11] = spinal cord, 20-month-old Abcd1−/−/Abcd2−/− mice, to control levels
# [12] = spinal cord, Abcd1−/−/Abcd2−/− mice, to control levels, data not shown
structure (smiles),measurement,setting,value
"CO[C@H]1C[C@@H]2CC[C@@H](C)[C@@](O)(O2)C(=O)C(=O)N2CCCC[C@H]2C(=O)O[C@H]([C@H](C)C[C@@H]2CC[C@@H](OC(=O)C(C)(CO)CO)[C@H](OC)C2)CC(=O)[C@H](C)/C=C(\C)[C@@H](O)[C@@H](OC)C(=O)[C@H](C)C[C@H](C)/C=C/C=C/C=C/1C [temsirolimus, (3S,6R,7E,9R,10R,12R, 14S,15E,17E,19E,21S,23S,26R,27R,34aS)-9,10,12,13,14,21,22,23,24,25,26,27,32,33,34,34a-Hexa deca hydro-9,27-dihydroxy-3-[(1R)-2-[1S,3R,4R)-4-hydroxy-3-methoxycyclohexyl]-10,21-dimethoxy-6,8,12,14,20,26-hexa meth 3H-pyrido [2,1-][1,4]oxa azaclo hentriacontine-1,5,11,28,29(4H,6H,31H)-pentone 4′-[2,2-bis (hydroxymethyl)propionate]]",immunoreactivity for total p70S6K,mTOR,did not change
same,phosphorylated p70S6K,mTOR,decrease
same,body weight,"Abcd1 null mice; continuous administration during 3 months, intraperitoneal, data not shown",important weight losses
same,body weight,Abcd1 null mice; [9],without significant weight loss
same,locomotor performances,Abcd1 null mice; [9],better
same,LC3-II levels,[1],up-
same,p62 levels,[1],down regulated
same,chymotrypsin-like proteasome activity,[2]; Abcd1−/− mouse spinal cord lysates,normalized
same,ATP levels,[2]; Abcd1−/− mouse spinal cord,normalizing
same,levels of oxidized proteins,[2]; Abcd1−/− mouse spinal cord,reduced considerably
same,induction of immunoproteasome subunit β1i/LMP2,[2]; [10],prevented the induction
same,induction of immunoproteasome subunit β5i/LMP7,[2]; [10],prevented the induction
same,motor neurons health in spinal cord,Abcd1−/−/Abcd2−/− mice [3]; XALD mice,improve
same,accumulation of APP (axonal damage marker),Abcd1−/−/Abcd2−/− mice [3]; [11],reduced
same,accumulation of synaptophysin (axonal damage marker),Abcd1−/−/Abcd2−/− mice [3]; [11],reduced
same,DNA oxidation,Abcd1−/−/Abcd2−/− mice [3]; [12],reduced
same,number of reactive astrocytes,Abcd1−/−/Abcd2−/− mice [3]; [12],reduced
same,number of reactive microglia,Abcd1−/−/Abcd2−/− mice [3]; [12],reduced
same,number of slips,Abcd1−/−/Abcd2−/− mice [4],normalized
same,time needed to cross the bar,Abcd1−/−/Abcd2−/− mice [4],normalized
same,ratio between the time length of the shocks and the number of shocks,Abcd1−/−/Abcd2−/− mice [5],normalized
"CCCCCCCCCCCCCCCCCCCCCCCCCC(=O)O [VLCFA, Hexacosanoic acid]",LC3-II levels,[6]; X-ALD fibroblasts,no significant differences
same,p62 levels,[6]; X-ALD fibroblasts,no significant differences
same,LC3-II levels,[6]; control fibroblasts,marked decrease
same,p62 levels,[6]; control fibroblasts,increase
same,inhibition at 50 µM,[7]; read-out: inhibition of lysosomal degradation of long-lived proteins,~40%
same,inhibition at 50 µM,[7]; read-out: inhibition of total degradation of long-lived proteins,~15%
same,inhibition of lysosomal degradation of long-lived proteins,[7]; X-ALD fibroblasts,no significant inhibitions
same,inhibition of total degradation of long-lived proteins,[7]; X-ALD fibroblasts,no significant inhibitions
CO[C@H]1C[C@@H]2CC[C@@H](C)[C@@](O)(O2)C(=O)C(=O)N2CCCC[C@H]2C(=O)O[C@H]([C@H](C)C[C@@H]2CC[C@@H](O)[C@H](OC)C2)CC(=O)[C@H](C)/C=C(\C)[C@@H](O)[C@@H](OC)C(=O)[C@H](C)C[C@H](C)/C=C/C=C/C=C/1C [rapamycin],water solubility,[8],poor
